According to patent publication US20220356163A1, “SMALL MOLECULE INHIBITORS OF Id PROTEINS” (MEMORIAL SLOAN KETTERING CANCER CENTER, priority 2019, published 2022):

Test system: choroidal neovascularization
Assay: Laser-induced choroidal neovascularization (CNV) model of AMD
Assay type: in vivo, mouse
Conditions: intravitreal days 1 and 7; 10 μg AGX51E2, 40 μg Aflibercept
Description: Mouse mode/s of ocular neovascularization. CNV was induced as previously described. Tobe et al., Am. J. Pathol., 153, 1641-1646 (1998). Briefly, 4-6 week-old female Id1^−/− or Id3^−/− mice and littermate control Id1^+/+ or Id3^+/+ mice (all in C57BL/6 background) had laser-induced rupture of Bruch's membrane at three locations in each eye and after 14 days mice were euthanized, eyes were removed, and choroidal flat mounts were stained with FITC-labeled Griffonia simplicifolia lectin (Vector Laboratories, Burlingame, Calif.) which selectively stains vascular cells (n=12 mice per group). Flat mounts were examined by fluorescence microscopy and the area of each CNV was measured by image analysis with Image-Pro Plus software (Media Cybernetics, Silver Spring, Md.) by an observer masked with respect to experimental groups. In other experiments, wild type 4-6 week-old, female, C57BL/6 mice had rupture of Bruch's membrane in each eye followed by intravitreal injection of 1-30 μg of AGX51 (racemic, E1 or E2) or vehicle in one eye immediately and after 7 days or mice were given twice daily i.p. injections of 500 μg of AGX51 or vehicle for 14 days (n=7-10 mice per group). The area of CNV was measured 14 days after rupture of Bruch's membrane. For Aflibercept and AGX-A treatment experiments, rupture of Bruch's membrane was carried out and then mice were treated with 40 μg of Aflibercept, 10 μg of AGX51E2, 1-5 μg of AGX51, 1-5 μg of AGX-A, DMSO or combinations. The mice were 4-6 week-old female C57BL/6. After 14 days, the mice were euthanized and CNV was measured as described above.

**Q.** Which “CNV area, head-to-head and combination treatment” value does the source give for “Aflibercept: clinically approved treatment for AMD, a VEGF trap” here?
**A.** failed to reach statistical significance
